Experimental data from US20210388005A1, “FLUORESCENT COMPOUND AND PREPARATION METHOD AND USE FOR THE SAME” (NEUBORON MEDTECH LTD., priority 2019, published 2021).

Experiments:
[1] = fluorescence spectrum at room temperature; assay type: physicochemical; details: excited at a wavelength
Experimental: (§1) To a single-necked flask is added 300 ml of absolute ethyl alcohol, 6.47 g of 3-bromomethyl phenylboronate indole quaternary ammonium salt, 2-chloro-3-hydroxymethylene cyclohexene carboxaldehyde, and 0.15 g of sodium acetate. The mixture is reacted at 70° C. for 1 h, and spin dried to remove the solvent. The resulting residue is separated by column chromatography, to obtain fluorescent compounds I-1 and I-2. The fluorescent compound I-1 has a maximum fluorescence emission peak at 808 nm when excited at a wavelength of […], and has a near infrared absorption peak in ethanol solution at 785 nm. The fluorescent compound I-2 has a maximum fluorescence emission peak at 811 nm when excited at a wavelength of […], and has a near infrared absorption peak in ethanol solution at 788 nm.

[2] = near-infrared absorption spectrum in ethanol solution; assay type: physicochemical
Experimental: FIG. 3 is a near-infrared absorption spectrum of compound I-1 and compound I-2 in Example 4 in ethanol solution.
as §1

CC1(C)C(/C=C/C2=C(Cl)C(=C/C=C3/N(Cc4cccc(B(O)O)c4)c4ccccc4C3(C)C)/CCC2)=[N+](Cc2cccc(B(O)O)c2)c2ccccc21 [Compound I-1]
maximum fluorescence emission peak [1]: 808 nm
near infrared absorption peak [2]: 785 nm

CC1(C)C(/C=C/C2=C(Cl)C(=C/C=C3/N(Cc4ccccc4)c4ccccc4C3(C)C)/CCC2)=[N+](Cc2cccc(B(O)O)c2)c2ccccc21 [Compound I-2]
maximum fluorescence emission peak [1]: 811 nm
near infrared absorption peak [2]: 788 nm
